Test results from patent publication US20050222402A1, “Dna encoding rat bombesin receptor subtype-3 (brs-3) and uses thereof” (priority 2001, published 2005).
Substitutions are numbered along the chain they refer to. Non-standard residues stand in square brackets, D forms with d. Residues, ends and D or L forms follow the SMILES beside them. Nle = CCCC[C@H](N)C(=O)O; βAla = NCCC(=O)O

Experiments:
Test in all cases: Calcium mobilization assay (FLIPR), substitution mutant
Assay type in all cases: cell-based
Rat BRS-3/IF (RB3-IF) = target: T1, Rat BRS-3/IF (RB3-IF) (Rattus norvegicus, UniProt Q8K418, V310I/V311F)
T1 construct: expressed in transfected cells; host or cells: 293EBNA cells, pE3 expression vector
T1 sequence (Q8K418 1-399 V310I/V311F): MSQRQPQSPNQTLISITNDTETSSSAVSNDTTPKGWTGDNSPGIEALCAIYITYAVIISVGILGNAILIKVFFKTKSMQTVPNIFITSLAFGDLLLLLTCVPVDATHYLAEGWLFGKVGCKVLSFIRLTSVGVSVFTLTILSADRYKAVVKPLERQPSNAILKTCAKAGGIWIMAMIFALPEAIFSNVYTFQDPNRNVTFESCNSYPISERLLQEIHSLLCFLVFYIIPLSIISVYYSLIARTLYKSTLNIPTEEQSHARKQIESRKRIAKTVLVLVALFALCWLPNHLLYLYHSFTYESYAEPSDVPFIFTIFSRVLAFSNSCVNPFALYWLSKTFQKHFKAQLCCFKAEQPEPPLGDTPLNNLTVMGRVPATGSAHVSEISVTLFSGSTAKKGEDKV
Text: (§1) Chimeric rat/human BRS-3 genes and substitution mutant rat BRS-3 genes were constructed by using PCR mutagenesis techniques (Fong, T. in Structure-function analysis of G protein coupled receptors, J, Wess, ed, Wiley-Liss, pp. 1-20, (1999)). All the mutant and wild type BRS-3 genes were cloned into pE3 expression vector which contains CMV early promoter, hygromycin-resistance gene and OriP segment from Epstein-Bar virus.
(§2) The functional activity of rat BRS-3 was also studied by measuring the agonist-induced calcium mobilization response using a Fluorescence Imaging Plate Reader (Molecular Devices, Sunnyvale, Calif.). Transfected 293EBNA cells were plated onto poly-D-lysine coated 96-well plates with black wall and clear bottom (Becton Dickinson, Franklin Lakes, N.J.). After 16-48 hr culture, the cells were loaded with 4 uM Fluo-3-AM fluorescent calcium-indicator dye (Molecular Probes, Eugene, OR) in assay buffer (Hank's balanced salts solution, 10 mM HEPES, pH7.4, 0.1% bovine serum albumin, 2.5 mM probenecid).
(§3) The changes in intracellular calcium concentration, as indicated by Fluo-3 fluorescence, were immediately measured by FLIPR. Maximal changes in fluorescence over base line were used to determine agonist response.
(§4) The EC50 values were mean±S.E. calculated from dose-response curves of 3-5 repeated experiments using FLIPR assays.
(§5) To determine which amino acids in the E3 loop of human BRS-3 conferred dYB activity upon rat BRS-3, several substitution BRS-3 mutants were made in which the amino acids in the E3 loop of rat BRS-3 were substituted with residues that match human BRS-3.

Rat BRS-3/AMH (RB3-AMH) = target: T2, Rat BRS-3/AMH (RB3-AMH) (Rattus norvegicus, UniProt Q8K418, D306A/P308H/V307M)
T2 construct: expressed in transfected cells; host or cells: 293EBNA cells, pE3 expression vector
T2 sequence (Q8K418 1-399 D306A/V307M/P308H): T1 sequence (Q8K418 1-399 V310I/V311F) with D306A, V307M, P308H, I310V, F311V
Text: as §1, §2, §3, §4, §5

Rat BRS-3/SQT (RB3-SQT) = target: T3, Rat BRS-3/SQT (RB3-SQT) (Rattus norvegicus, UniProt Q8K418, E299Q/S300T/Y298S)
T3 construct: expressed in transfected cells; host or cells: 293EBNA cells, pE3 expression vector
T3 sequence (Q8K418 1-399 Y298S/E299Q/S300T): T1 sequence (Q8K418 1-399 V310I/V311F) with Y298S, E299Q, S300T, I310V, F311V
Text: as §1, §2, §3, §4, §5

Rat BRS-3/VD (RB3-VD) = target: T4, Rat BRS-3/VD (RB3-VD) (Rattus norvegicus, UniProt Q8K418, A302V/E303D)
T4 construct: expressed in transfected cells; host or cells: 293EBNA cells, pE3 expression vector
T4 sequence (Q8K418 1-399 A302V/E303D): T1 sequence (Q8K418 1-399 V310I/V311F) with A302V, E303D, I310V, F311V
Text: as §1, §2, §3, §4, §5

CCCC[C@H](NC(=O)[C@H](Cc1ccccc1)NC(=O)[C@H](Cc1cnc[nH]1)NC(=O)CCNC(=O)[C@@H](NC(=O)[C@H](C)NC(=O)[C@H](Cc1c[nH]c2ccccc12)NC(=O)[C@H](CCC(N)=O)NC(=O)[C@H](N)Cc1ccc(O)cc1)C(C)C)C(N)=O [dYB, [D-Tyr6-betaAla11-Phe13-Nle14] bombesin (6-14)] (H-[dY]QWAV[βAla]HF[Nle]-NH2)
EC50 (Rat BRS-3/IF (RB3-IF)): 1300 ± 230 nM | EC50 (Rat BRS-3/AMH (RB3-AMH)): 370 ± 70 nM | EC50 (Rat BRS-3/SQT (RB3-SQT)): 390 ± 80 nM | EC50 (Rat BRS-3/VD (RB3-VD)): 930 ± 150 nM

CCCC[C@H](NC(=O)[C@H](Cc1ccccc1)NC(=O)[C@H](Cc1c[nH]cn1)NC(=O)CCNC(=O)[C@@H](NC(=O)[C@H](C)NC(=O)[C@H](Cc1c[nH]c2ccccc12)NC(=O)[C@H](CCC(N)=O)NC(=O)[C@H](N)Cc1ccc(O)cc1)C(C)C)C(N)=O [dYB, [D-Tyr6-betaAla11-Phe13-Nle14] bombesin (6-14)] (H-[dY]QWAV[βAla]HF[Nle]-NH2)
effect of mutation on dYB receptor activity (Rat BRS-3/IF (RB3-IF); RBB3-IF vs rat BRS-3): little effect on the receptor activity | improvement of dYB potency in calcium mobilization (Rat BRS-3/AMH (RB3-AMH); RB3-AMH vs rat BRS-3): 6 fold | improvement of dYB potency in calcium mobilization (Rat BRS-3/SQT (RB3-SQT); RB3-SQT vs rat BRS-3): 5 fold | effect of mutation on dYB receptor activity (Rat BRS-3/VD (RB3-VD); RBB3-VD vs rat BRS-3): little effect on the receptor activity
